From publication PMC12865225 (Clinical and Translational Science, 2026)

Key:
[1] = Static model DDI risk evaluation (FDA R values), inhibitor concentrations; design: species or system human; details: for I in,max,u maximum unbound plasma inhibitor concentration at liver inlet: 1000 mg oral dose, Fa×Fg 1, ka 0.1/min; for Igut intestinal luminal concentration: dose/250 mL
Method: To evaluate potential clinical DDIs for transporters, the FDA R values were calculated according to the FDA In Vitro Drug Interaction Studies guidance. Equation (3) was used to estimate the maximum unbound plasma inhibitor concentration at liver inlet (I in,max) for OATPs, where f u,p is the unbound fraction in plasma, C max is the maximal total concentration in plasma, F a is the fraction absorbed after oral administration, F g is the fraction available after intestinal metabolism, k a is the first‐order absorption rate constant in vivo, dose is the oral dose, Q h is the hepatic blood flow, and R B is the blood‐to‐plasma concentration ratio. (3) Iin,max,u=fu,p×Cmax+Fa×Fg×ka×Dose/Qh×RB
Hepatic blood flow (Q h) was set to 1.620 L/min [31].

OATP1B1 = target: T1, OATP1B1 (Homo sapiens, UniProt Q9Y6L6); assay: OATP1B1 inhibition with fluorescent substrate 2′,7′-dichlorofluorescein in HEK293 cells; format: cell-based; details: 1 µM 2′,7′-dichlorofluorescein, 30 min preincubation
T1 construct: expressed in transfected cells; host or cells: HEK293 (recombinant baculovirus-mediated transduction)
T1 sequence (Q9Y6L6 1-691): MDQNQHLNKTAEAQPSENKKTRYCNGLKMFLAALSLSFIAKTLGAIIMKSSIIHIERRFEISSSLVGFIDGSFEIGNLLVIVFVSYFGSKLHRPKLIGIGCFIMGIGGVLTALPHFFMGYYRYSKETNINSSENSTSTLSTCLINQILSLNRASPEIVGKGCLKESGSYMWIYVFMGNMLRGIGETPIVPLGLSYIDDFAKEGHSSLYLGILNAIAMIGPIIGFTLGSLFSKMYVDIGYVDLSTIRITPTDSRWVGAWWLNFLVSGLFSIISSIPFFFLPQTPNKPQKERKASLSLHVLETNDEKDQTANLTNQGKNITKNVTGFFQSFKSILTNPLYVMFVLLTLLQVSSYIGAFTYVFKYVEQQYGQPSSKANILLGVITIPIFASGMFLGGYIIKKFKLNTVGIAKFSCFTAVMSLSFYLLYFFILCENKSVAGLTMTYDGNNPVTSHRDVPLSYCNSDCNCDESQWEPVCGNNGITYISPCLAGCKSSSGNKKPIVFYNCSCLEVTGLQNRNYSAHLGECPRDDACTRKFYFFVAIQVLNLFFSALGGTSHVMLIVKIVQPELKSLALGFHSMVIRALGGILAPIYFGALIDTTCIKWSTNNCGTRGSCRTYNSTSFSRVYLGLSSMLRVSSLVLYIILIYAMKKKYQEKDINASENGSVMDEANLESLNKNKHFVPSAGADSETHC
Method: 8- (2- [Fluoresceinyl]aminoethylthio)adenosine- 3', 5'- cyclic monophosphate (8-Fluo-cAMP) was acquired from Biolog Life Science Institute (Bremen, Germany), 4′,5′-dibromofluorescein was acquired from Sigma-Aldrich (St. Louis, MO, USA) and 2′,7′-dichlorofluorescein was acquired from Santa Cruz Biotechnology (Dallas, TX, USA).
Inhibition studies with fluorescent substrates in OATP transduced HEK293 cells The concentrations of fluorescent probe substrates were 1 µM 2′,7′-dichlorofluorescein for OATP1B1, 2.5 µM 8-Fluo-cAMP for OATP1B3 and 1 µM 4′,5′-dibromofluorescein for OATP2B1, and these concentrations were selected to be within or below of previously reported […]
reported linear ranges of transport for these substrate-transporter combinations.1,2,4 8-Fluo-cAMP was dissolved in ultrapure water, while dimethyl sulfoxide (DMSO) was used for all other compounds. […] For the quantification of fluorescent substrates, cells were lysed with 120 µl of lysis solution (1% Triton X-100, 5 mM EDTA, 150 mM sodium chloride and 150 mM TRIC-hydrochloride and adjusted to pH 8 with sodium hydroxide) for 30 min at 300 RPM shaking before transferring 80 µl of samples to a transparent 96-well plate containing 20 µl of 0.5 M sodium hydroxide. […] The plates were measured with a fluorescent plate reader (Varioskan LUX from ThermoFisher Scientific). […]

I in,max,u maximum unbound plasma inhibitor concentration at liver inlet [1]	I max,u maximal unbound plasma concentration at steady state ([1]; C max × f u)	Igut intestinal luminal concentration [1]	IC50 at 5 min (OATP1B1; human, HEK293 cells transduced to express OATP1B1, pH 7.4, probe 2′,7′-dichlorofluorescein 1 µM)	IC50 (OATP1B1; 5 min)	SMILES
5.51 µM	1.34 µM	8505 µM	3.59 µM		Cc1onc(-c2c(Cl)cccc2Cl)c1C(=O)N[C@@H]1C(=O)N2[C@@H]1SC(C)(C)[C@@H]2C(=O)O [Dicloxacillin]
15.7 µM		8813 µM		9.28 µM	Cc1onc(-c2c(F)cccc2Cl)c1C(=O)N[C@@H]1C(=O)N2[C@@H]1SC(C)(C)[C@@H]2C(=O)O [Flucloxacillin]
